Experimental data from the NIST ThermoML archive (doi:10.1016/j.jct.2015.05.027).

Conditions: Liquid, Vibrating tube method

CCC(C)O (centres undefined) [butan-2-ol]
mass density [kg/m3]
Conditions | 293.15 K | 298.15 K | 313.15 K | 333.15 K | 353.21 K | 373.24 K | 393.27 K
100 kPa | 806.7 | 802.6 | 789.5 | 770.8 | 750.3 | – | –
1000 kPa | 807.4 | 803.3 | 790.3 | 771.7 | 751.4 | 729.1 | 704.8
5000 kPa | 810.4 | 806.4 | 793.6 | 775.6 | 756 | 734.5 | 711.4
10000 kPa | 814 | 810.1 | 797.7 | 780.2 | 761.3 | 740.8 | 718.8
15000 kPa | 817.4 | 813.6 | 801.6 | 784.6 | 766.4 | 746.6 | 725.6
20000 kPa | 820.7 | 817 | 805.2 | 788.8 | 771 | 751.9 | 731.7
25000 kPa | 823.9 | 820.2 | 808.5 | 792.6 | 775.4 | 757 | 737.4
30000 kPa | 826.9 | 823.4 | 812.1 | 796.3 | 779.5 | 761.6 | 742.7
35000 kPa | 829.9 | 826.3 | 815.3 | 800 | 783.5 | 766.1 | 747.8
40000 kPa | 832.7 | 829.2 | 818.4 | 803.4 | 787.2 | 770.4 | 752.5
45000 kPa | 835.4 | 832 | 821.3 | 806.6 | 790.8 | 774.4 | 757
50000 kPa | 838.1 | 834.7 | 824.2 | 809.7 | 794.5 | 778.1 | 761.2
55000 kPa | 840.6 | 837.4 | 827 | 812.8 | 797.7 | 781.9 | 765.4
60000 kPa | 843.2 | 839.9 | 829.8 | 815.8 | 801 | 785.4 | 769.2
65000 kPa | 845.7 | 842.4 | 832.5 | 818.7 | 804.1 | 788.8 | 773
70000 kPa | 848 | 844.8 | 835 | 821.4 | 807.2 | 792.1 | 776.6
80000 kPa | 852.6 | 849.5 | 839.9 | 826.7 | 812.9 | 798.5 | 783.4
90000 kPa | 857.1 | 854 | 844.7 | 831.9 | 818.3 | 804.3 | 789.8
100000 kPa | 861.2 | 858.2 | 849.1 | 836.7 | 823.5 | 809.8 | 795.8
110000 kPa | 865.3 | 862.4 | 853.4 | 841.2 | 828.5 | 815.1 | 801.5
120000 kPa | 869.2 | 866.2 | 857.5 | 845.5 | 833.1 | 820.1 | 806.8
130000 kPa | 873 | 870.1 | 861.5 | 849.8 | 837.6 | 824.9 | 811.9
140000 kPa | 876.6 | 873.7 | 865.4 | 853.8 | 842 | 829.5 | 816.8
